# Where “and” joins values, the source holds several entries; their conditions need not be identical. Equal values may be shown once. Where a SMILES comes first, the peptide text is derived from it. The star is where a group is joined. Cbz = O=C(OCc1ccccc1)*
# Tests used:
# [1] = tested on: EW-24; assay: cells; assay type: functional, cell-based, Homo sapiens;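 further: human EW-24 cancer cell line, growth inhibition read out via a cell viability assay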
# Description: SANGER: Inhibition of human EW-24 cell growth in a cell viability assay.
# [2] = tested on: HuTu80; assay: cells; assay type: functional, cell-based, Homo sapiens, HUTU-80;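 further: growth inhibition of HuTu80 human cells, determined with a cell viability readout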
# Description: SANGER: Inhibition of human HUTU-80 cell growth in a cell viability assay.
# [3] = tested on: KMS-12-PE; assay: cells; assay type: functional, cell-based, Homo sapiens;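 further: growth inhibition of human KMS-12-PE cells, measured with a cell viability assay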
# Description: SANGER: Inhibition of human KMS-12-PE cell growth in a cell viability assay.
# [4] = tested on: NCCIT; assay: SANGER: Inhibition of human NCCIT cell growth in a cell viability assay.; assay type: functional, cell-based
# [5] = tested on: NCI-H2081; assay: cells; assay type: functional, cell-based, Homo sapiens;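 further: growth inhibition of human NCI-H2081 cells, read out with a cell viability assay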
# Description: SANGER: Inhibition of human NCI-H2081 cell growth in a cell viability assay.
# [6] = tested on: NCI-H322M; assay: cells; assay type: functional, cell-based, Homo sapiens;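 further: cell viability assay measuring inhibition of growth of human NCI-H322M cells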
# Description: SANGER: Inhibition of human NCI-H322M cell growth in a cell viability assay.
# [7] = tested on: NCI-H748; assay: cells; assay type: functional, cell-based, Homo sapiens;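 further: growth inhibition of NCI-H748 cells, measured by a cell viability assay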
# Description: SANGER: Inhibition of human NCI-H748 cell growth in a cell viability assay.
# [8] = tested on: SNU-16; assay: cells; assay type: functional, cell-based, Homo sapiens;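 further: growth inhibition of human SNU-16 cells, determined with a cell viability readout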
# Description: SANGER: Inhibition of human NCI-SNU-16 cell growth in a cell viability assay.
# [9] = tested on: OPM-2; assay: cells; assay type: functional, cell-based, Homo sapiens;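 further: growth of OPM-2 cells measured with a viability assay, IC50 for suppression of proliferation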
# Description: SANGER: Inhibition of human OPM-2 cell growth in a cell viability assay.
# [10] = tested on: ARH-77; assay: cells; assay type: functional, cell-based, Homo sapiens;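 further: growth inhibition of ARH-77 cells, read out by a cell viability assay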
# Description: SANGER: Inhibition of human ARH-77 cell growth in a cell viability assay.
# [11] = tested on: BL-41; assay: cells; assay type: functional, cell-based; conditions: Homo sapiens;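 further: growth inhibition of human BL-41 cells, read out with a cell viability assay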
# Description: SANGER: Inhibition of human BL-41 cell growth in a cell viability assay.
# [12] = tested on: BL-70; assay: SANGER: Inhibition of human BL-70 cell growth in a cell viability assay.; assay type: functional, cell-based
# [13] = tested on: BOKU; assay: cells; assay type: functional, cell-based; conditions: Homo sapiens;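 further: growth inhibition of the human BOKU cell line, read out by a cell viability assay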
# Description: SANGER: Inhibition of human BOKU cell growth in a cell viability assay.
# [14] = tested on: TE-15; assay: cells; assay type: functional, cell-based, Homo sapiens;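 further: cell viability readout of growth inhibition in TE-15 cells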
# Description: SANGER: Inhibition of human TE-15 cell growth in a cell viability assay.
# [15] = tested on: U-698-M; assay: cells; assay type: functional, cell-based, Homo sapiens
# Description: SANGER: Inhibition of human U-698-M cell growth in a cell viability assay.
# [16] = tested on: CESS; assay: SANGER: Inhibition of human CESS cell growth in a cell viability assay.; assay type: functional, cell-based
# [17] = tested on: D-392MG; assay: cells; assay type: functional, cell-based; conditions: Homo sapiens
# [18] = tested on: DU-145; assay: cells; assay type: functional, cell-based; conditions: Homo sapiens
# Description: SANGER: Inhibition of human DU-145 cell growth in a cell viability assay.
# [19] = tested on: FaDu; assay: cells; assay type: functional, cell-based; conditions: Homo sapiens;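 further: cell viability readout of growth inhibition in FaDu cells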
# Description: SANGER: Inhibition of human FADU cell growth in a cell viability assay.
# [20] = tested on: GP5d; assay: cells; assay type: functional, cell-based; conditions: Homo sapiens;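 further: growth inhibition of human GP5d cells, read out with a cell viability assay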
# Description: SANGER: Inhibition of human GP5d cell growth in a cell viability assay.
# [21] = tested on: H4; assay: cells; assay type: functional, cell-based; conditions: Homo sapiens
# Description: SANGER: Inhibition of human H4 cell growth in a cell viability assay.
# [22] = tested on: J82; assay: cells; assay type: functional, cell-based; conditions: Homo sapiens;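 further: growth inhibition of J82 cells, read out with a cell viability assay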
# Description: SANGER: Inhibition of human J82 cell growth in a cell viability assay.
# [23] = tested on: LCLC-97TM1; assay: cells; assay type: functional, cell-based; conditions: Homo sapiens;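 further: cell viability assay measuring growth inhibition of human LCLC-97TM1 cells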
# Description: SANGER: Inhibition of human LCLC-97TM1 cell growth in a cell viability assay.
# [24] = tested on: MKN-28; assay: cells; assay type: functional, cell-based; conditions: Homo sapiens;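 further: cell viability assay read-out, IC50 reflects suppression of growth of human MKN-28 cells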
# Description: SANGER: Inhibition of human MKN28 cell growth in a cell viability assay.
# [25] = tested on: ACHN; assay: cells; assay type: functional, cell-based; conditions: Homo sapiens;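 further: cell viability read-out used to gauge how strongly growth of human ACHN cells is suppressed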
# Description: SANGER: Inhibition of human ACHN cell growth in a cell viability assay.
# [26] = tested on: CAL-54; assay: cells; assay type: functional, cell-based; conditions: Homo sapiens;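 further: growth inhibition of CAL-54 cells, read out by a viability measurement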
# Description: SANGER: Inhibition of human CAL-54 cell growth in a cell viability assay.
# [27] = tested on: VM-CUB-1; assay: cells; assay type: functional, cell-based; conditions: Homo sapiens;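 further: cell viability assay measuring growth inhibition of the human VM-CUB-1 cell line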
# Description: SANGER: Inhibition of human VM-CUB-1 cell growth in a cell viability assay.
Structure (SMILES),"IC50 ([1]; Homo sapiens, EW-24)","IC50 ([2]; Homo sapiens, HuTu80)","IC50 ([3]; Homo sapiens, KMS-12-PE)","IC50 ([4]; Homo sapiens, NCCIT)","IC50 ([5]; Homo sapiens, NCI-H2081)","IC50 ([6]; Homo sapiens, NCI-H322M)","IC50 ([7]; Homo sapiens, NCI-H748)","IC50 ([8]; Homo sapiens, SNU-16)","IC50 ([9]; Homo sapiens, OPM-2)","IC50 ([10]; Homo sapiens, ARH-77)",IC50 [11],"IC50 ([12]; Homo sapiens, BL-70)",IC50 [13],"IC50 ([14]; Homo sapiens, TE-15)","IC50 ([15]; Homo sapiens, U-698-M)","IC50 ([16]; Homo sapiens, CESS)",IC50 [17],also measured
C=CC(=O)N1CCCC(Nc2nc(Nc3ccc(N(C)C(=O)CC)cc3)nc3[nH]cnc23)C1 (stereo not given),4590 nM,> 10200 nM,> 10200 nM,> 10200 nM,> 10200 nM,> 10200 nM,> 10200 nM,> 10200 nM,> 10200 nM,> 10200 nM,> 10200 nM,> 10200 nM,> 10200 nM,1850 nM,> 10200 nM,> 10200 nM,–,–
COc1ccc(N(C(=O)Oc2c(C)cccc2C)c2ccnc(Nc3ccc(N4CCN(C)CC4)cc3)n2)c(OC)c1,> 5120 nM,175 nM,> 5120 nM,> 5120 nM,> 5120 nM,> 5120 nM,> 5120 nM,15.7 nM,> 5120 nM,> 5120 nM,1000 nM,< 20 nM,1810 nM,243 nM,> 5120 nM,> 5120 nM,–,–
Cc1cc(N2CCOCC2)cc2[nH]c(-c3c(NC[C@@H](O)c4cccc(Cl)c4)cc[nH]c3=O)nc12,> 5120 nM,466 nM,> 5120 nM,3830 nM,> 5120 nM,> 5120 nM,> 5120 nM,873 nM,525 nM,2800 nM,> 5120 nM,4800 nM,3150 nM,813 nM,> 5120 nM,> 5120 nM,–,–
NC(=O)c1cccc(-c2cc(Nc3ccc(OC(F)(F)F)cc3)ncn2)c1,> 1280 nM,> 1280 nM,> 1280 nM,> 1280 nM,> 1280 nM,> 1280 nM,> 1280 nM,> 1280 nM,> 1280 nM,> 1280 nM,> 1280 nM,> 1280 nM,> 1280 nM,> 1280 nM,> 1280 nM,> 1280 nM,–,–
CC(C)C[C@H](NC(=O)[C@H](Cc1ccccc1)NC(=O)c1cnccn1)B(O)O [BORTEZOMIB],2.08 nM,0.533 nM,> 20 nM,18.4 nM,10.1 nM,> 20 nM,2.39 nM,7.65 nM,1.33 nM,2.38 nM,1.25 nM,2.12 nM,–,3.43 nM,> 20 nM,0.538 nM,1.1 nM,–
Nc1ccccc1NC(=O)c1ccc(CNC(=O)OCc2cccnc2)cc1 [ENTINOSTAT],> 5000 nM,1800 nM,> 5000 nM,386 nM,> 5000 nM,> 5000 nM,103 nM,> 5000 nM,415 nM,382 nM,569 nM,857 nM,–,> 5000 nM,> 5000 nM,812 nM,> 5000 nM,–
CC(C)C[C@@H](C=O)NC(=O)[C@H](CC(C)C)NC(=O)[C@H](CC(C)C)NC(=O)OCc1ccccc1 [MG-132] (Cbz-Leu-Leu-Leu-aldehyde),> 1000 nM,> 1000 nM,–,–,–,–,> 1000 nM,> 1000 nM,–,–,–,–,> 1000 nM,–,–,–,191 nM,IC50 ([1]; ew-24): > 1000 nM; IC50 ([2]; hutu-80): > 1000 nM; IC50 ([3]; kms-12-pe): > 1000 nM; IC50 ([4]; nccit): 318 nM and > 1000 nM; IC50 ([5]; nci-h2081): > 1000 nM; IC50 ([6]; nci-h322m): > 1000 nM; IC50 ([7]; nci-h748): > 1000 nM; IC50 ([8]; snu-16): > 1000 nM; IC50 ([9]; opm-2): 105 nM and 758 nM; IC50 ([10]; arh-77): > 1000 nM; IC50 ([12]; bl-70): 694 nM and > 1000 nM; IC50 ([14]; te-15): > 1000 nM; IC50 ([15]; u-698-m): > 1000 nM; IC50 ([16]; cess): 171 nM and > 1000 nM
CO[C@@H]1[C@H](N(C)C(=O)c2ccccc2)C[C@H]2O[C@]1(C)n1c3ccccc3c3c4c(c5c6ccccc6n2c5c31)C(=O)NC4 [MIDOSTAURIN],–,–,–,> 512 nM,–,–,–,–,–,–,–,> 512 nM,–,–,–,> 512 nM,331 nM,IC50 [18]: 319 nM; IC50 [19]: > 512 nM; IC50 [20]: > 512 nM; IC50 [21]: 140 nM; IC50 [22]: > 512 nM; IC50 [23]: > 512 nM; IC50 [24]: > 512 nM; IC50 [25]: 331 nM; IC50 [26]: 209 nM; IC50 [27]: > 512 nM

# — ChEMBL document CHEMBL1201861, “Genomics of Drug Sensitity in Cancer screening data, Wellcome Trust Sanger Institute”
